Settings in the first data set: not given
In the case of `O=C(NCCCn1ccnc1)c1n[nH]c2ccccc12`, the melting point was in the range of 154 to 155 °C. On the same count and under the same terms, the figure for `CCOC(=O)c1cccc(NC(=O)c2n[nH]c3ccccc23)c1` is 187 to 188 °C; for `O=C(O)c1cccc(NC(=O)c2n[nH]c3ccccc23)c1` it is above 250 °C. On the same count and under the same terms, the value for `O=C(Nc1ccncc1)c1n[nH]c2ccc([N+](=O)[O-])cc12` was above 260 °C; that for `O=C(Nc1ccncc1)c1n[nH]c2ccc(I)cc12` was above 260 °C.

The compound `O=C(Nc1ccc(Nc2ccccc2)cc1)c1n[nH]c2ccccc12` [Compound No. 4, N-(4-Phenylaminophenyl)-1H-indazole-3-carboxamide] showed a melting point of 218 °C.

For another data set the following is noted: prior art; cited from earlier work.
Consider `Cc1ccc(CNC(=O)c2n[nH]c3ccccc23)cc1` [N-(4-Methylbenzyl)-1H-indazole-3-carboxamide], for which the pharmacological activity result is on record as “no pharmacological activity”.

As usually defined, the melting point is the temperature, or range, at which the solid turns liquid.

Source of the values: US7482342B2, “Indazolecarboxamide derivatives, preparation and use thereof as CDK1, CDK2 and CDK4 inhibitors” (sanofi-aventis, priority 2002, dated 2009).
